Data from patent publication US20080118980A1, “Estrogen Enhancing Differentiation of Human Mesenchymal Stromal Cells and Adipose-derived Stromal Cells” (The Board of Trustees of the University of Illinois,, priority 2006, published 2008).

Assays:
Assay type in all cases: cell-based
[1] = tested on: human ASCs; assay: Osteogenic differentiation of ASCs modulated by E2 (Example 2)
Description: Because estrogen receptors (ERs) exist in adipose tissues (Dieudonne et al. (2004) Am J Physiol Cell Physiol. 286:C655-661), it is hypothesized that estrogen can also modulate the differentiation potentials of ASCs. All the experiments using human ASCs were performed under an approved IRB protocol of the University of Illinois at Chicago. Human abdomen subcutaneous adipose tissue was obtained from a healthy person with lipo-aspirated surgery. ASCs were isolated from adipose tissue according to previous studies (Hong et al. (2006) Cells Tissues Organs. 183 (3):133-40). Briefly, adipose tissue was finely minced and then digested with 0.075 wt % collagenase type I (Sigma, St Louis, Mo.) at 37° C. for 45 min with intermittent shaking. The cells were collected by filtration with a cell strainer with pore size of 100 μm diameter (Fisher Scientific, Barrington, Ill.). The harvested cells were cultured in a Dulbecco's Modified Eagle's Medium (DMEM), 15% fetal bovine serum (FBS) and 1% antibiotic-antimycotic at 10^6 cells/100 mm dish. Upon reaching 80-90% confluence, the isolated cells were trypsinized, counted, and subcultured at a density of 10^5 cells/100 mm dish as passage-1. The cells used for study are passage-3.
The basic medium supplemented with 100 nM dexamethasone, 10 mM β-glycerophosphate, and 0.05 mM ascorbic acid-2-phosphate was used to differentiate ASCs into an osteogenic cell lineage. Human ASCs were seeded at a cell density of 10^4 cells/cm^2 on 12-well plates and 100 mm petri dishes. Upon reaching 70% confluence, counting as day-0, the cells were exposed to osteogenic differentiation medium supplemented with different concentrations of E2 (from 10^−8 to 10^−11 M). On day 7, the cells cultured on petri dishes were collected for assessment of gene expressions of osteogenic specific markers and estrogen receptors (ERs) by reverse transcriptase polymerase chain reaction (RT-PCR) analysis. On day 14, the cells cultured in 12-well plates were analyzed for DNA, extracellular matrix, alkaline phosphatase (ALP) activity and calcium content.
On the defined day, cells cultured in 12-well plates were washed twice with phosphate buffered solution (PBS), suspended and lysed in 1% Triton-X100 solution (Sigma, St. Louis, Mo.). The collected cells were subsequently homogenized using sonication (Dismembrator Model 100, Fisher Scientific, Barrington, Ill.). The DNA content in the cells was determined by a fluorometric assay using a spectrofluorometer and DNA quantification kit (Hoechst 33258, Bio-Rad, Hercules, Calif.). The total protein concentrations of lysates were measured by a simple colorimetric assay based on the Bradford dye-binding procedure (Bio-Rad, Hercules, Calif.). The amount of protein was normalized by the unit of DNA.
ALP activity was assessed qualitatively by ALP staining. The cultured cells were fixed in 10% paraformaldehyde and incubated with 120 mM Tris buffer, pH 8.4, containing 0.9 mM Naphtol AS-MX Phosphate (Sigma, St. Louis, Mo.) and 1.8 mM Fast Red TR. After 45 min at room temperature, the cultures were washed with deionized water. Mineral deposition in the extracellular matrix was presented by von Kossa staining. The fixed cells were incubated in 2.5% (w/v) silver nitrate (Sigma, St. Louis, Mo.) solution for 30 min in sunlight. In order to quantify ALP activity and calcium content, cultured cells were washed twice with PBS, suspended and lysed in 0.5 ml of 1% Triton-X100 solution. ALP and calcium content were measured by spectrophotometry with a colorimetric kit according to the manufacturer's instructions (Raichem, San Diego, Calif.).
Total RNA was extracted from the various differentiated cells using TRizol reagent (Invitrogen, Carlsbad, Calif.). Approximately 5 μg of total RNA was converted to single stranded cDNA using a commercial cDNA synthesis kit (Invitrogen, Carlsbad, Calif.). […]

[2] = tested on: rat bone MSC-based TE constructs; assay: Osteogenic differentiation of rat bone MSC-based TE constructs with E2 (Example 4); settings: 14 days; for calcium deposition: FIG. 9C
Description: TE constructs were created by seeding passage-1 MSCs on gelatin sponges (Gelfoam@, Pharmacia & Upjohn, Kalamazoo, Mich.). The sponge were trimmed into 4×4×4 mm^3 and pre-wet with DMEM medium for 1 hr. The sponges were transferred to MSC suspension with a cell density of 2×10^6 cells/ml under a slight vacuum created by 20 ml syringe, followed by incubation in 5% CO2 at 37° C. for two hours. Beginning the next day as day-0, TE constructs were respectively exposed to the osteogenic differentiation medium supplemented with different concentrations of E2 (10^−6M to 10^−12M). The osteogenic differentiation medium consists of basic medium supplemented with 100 nM dexamethasone, 10 mM β-glycerophosphate, and 0.05 mM ascorbic acid-2-phosphate. After two weeks of differentiation, constructs of each experimental group were collected and quantitatively measured for osteogenic differentiation.
TE constructs were immersed in 0.2 ml of 1% Triton-X100 and homogenized with sonication. The DNA concentration of cell lysate was measured fluorometrically using Hoechst dye 33258 (Bio-Rad, Hercules, Calif.). The fluorescent optical density of each sample was measured using a fluorometer having an excitation wavelength of 360 nm and an emission wavelength of 460 nm. The amount of DNA in each sample was determined by using a prepared standard curve. ALP and calcium content were measured by spectrophotometry with a calorimetric kit according to the manufacturers' instructions (Sigma, St. Louis, Mo.).

[3] = tested on: rat bone MSCs; assay: Proliferation of rat bone MSCs with E2 modulation (MTS, Example 4); settings: for cell proliferation (absorbance at 540 nm) vs control: 10^−9 and 10^−6 M E2, day 3, FIG. 9A; for E2 concentration of proliferation peak: day 3
Description: Three month-old, male and female Fisher 344 rats (Charles River Lab., Wilmington, Mass.) were purchased and euthanized by CO^2 inhalation. The tibias and femurs were dissected and bone marrow plugs were flushed out with a syringe (18-gauge needle), and filled with a basic medium consisting of DMEM, 10%FBS and 1% antibiotic-antimycotic. Cells were counted on a hemacytometer, plated at 5×10^7 cells/100-mm petri dish and incubated with basic DMEM medium at 37° C. in 5% CO2. The MSCs were isolated by removing unattached cells via medium exchange. The MSCs were incubated up to 80% confluence and then subcultured at a density of 10^6/100-mm dish. Prior to confluence, the MSCs were trypsinized, counted and used for measuring proliferation rate using E2 modulation.
In order to analyze the estrogen function on cell proliferation, 500 of passage-1 MSCs were placed into each well of 96-well plates and exposed to basic medium supplemented with different concentrations of E2 (10^−6M to 10^−9M) (Sigma, St. Louis, Mo.). On day 3, the cell proliferation with different estrogen modulations were quantified using a MTS calorimetric method according to manufacturer's manual (CellTiter 96® Queous One Solution Cell Proliferation Assay, Promega, Madison, Wis.)

C[C@]12CC[C@@H]3c4ccc(O)cc4CC[C@H]3[C@@H]1CC[C@@H]2O [E2, 17-β estradiol]
OCN expression (RT-PCR) ([1]; 7 days, estrogen supplement 10^−8 M): only expressed
ERβ expression (RT-PCR) ([1]; 7 days, estrogen supplement 10^−11 M): light bands
ALP and cbfa-1 expression (RT-PCR bands) ([1]; 7 days, vs cells grown in the absence of estrogen, FIG. 4): intense bands
staining for ALP and von Kossa ([1]; ASCs, osteogenic medium supplemented with E2): Intense staining
ALP activities ([1]; E2 10^−9 and 10^−8 M, after 14 days, FIG. 5B): significantly improved
proliferation during osteogenesis (DNA content) ([1]; day 14, FIG. 5A): does not increase proliferation
calcium content (mineralization of the extracellular matrix) ([1]; day 14, most notably at 10^−8 M, FIG. 5D): significantly increased
protein content (extracellular matrix synthesis) ([1]; day 14, normalized by DNA, FIG. 5C): increased
peak concentration of E2 to increase ALP activity ([2]; both male and female MSCs): 10^−10 M
calcium deposition ([2]; female MSC-derived constructs): does not appear to have similar effects
calcium deposition ([2]; male MSC-derived constructs): may also improve
ALP activities of constructs ([2]; male and female constructs, dose-dependent, FIG. 9B): increased
cell proliferation (absorbance at 540 nm) vs control ([3]; female MSCs): significantly higher
E2 concentration of proliferation peak ([3]; female bone MSCs): 10^−6 M
cell proliferation (absorbance at 540 nm) vs control ([3]; male MSCs): significantly higher
E2 concentration of proliferation peak ([3]; male bone MSCs): 10^−9 M
